Columns and labels:
amidohydrolase = test: Enzyme characterization with heat-treated cell-free extract; format: biochemical, Klebsiella oxytoca PRS1K17 (DSM 11623); conditions: for effect of methanol on the amidohydrolase: methanol 5 to 20%, 40 and 60° C., substrate 1% (64 mM), 100 mM CAPS buffer pH 10.0
Description: A heat-treated cell-free extract was employed for characterizing the amidase. Cells of Klebsiella oxytoca PRS1K17 (DSM 11623) (OD650=160) were disrupted by passing through a French press at 19000 psi (1309 bar). Benzonase (1 μl×30 ml extract^−1) was added, and the extract was then centrifuged for 1 hour at 20000×g. The supernatant (approx. 20 mg×ml^−1 protein) was heated for 10 minutes at 70° C. and the precipitated protein was then removed by centrifugation. The supernatant (approx. 2.0 mg×ml^−1) was concentrated to 5.0 mg×ml^−1 protein and then stored at −20° C. The heat treatment removed approx. 90% of undesired protein. Up to a protein concentration of 0.5 mg×ml^−1, the reaction rate was in direct proportion to the protein concentration. A protein concentration of 0.2 mg×ml^−1 was therefore routinely employed in the tests. To determine the pH optimum, the concentration of (R,S)-2,2-HTFMPA (substrate) was 0.5% (32 mM) and the temperature was 40° C. The buffers listed in Table 4 were employed in the test.
The effect of the temperature on the reaction was determined in 100 mM CAPS buffer (pH 10.0) at a substrate concentration of 0.5% (32 mM). The effect of the substrate concentration was determined at 60° C. in 100 mM CAPS buffer (pH 10.0), and the effect of methanol at 40 and 60° C. at a substrate concentration of 1% (64 mM) in 100 mM CAPS buffer (pH 10.0). […] The temperature optimum is 70° C. […] 10.4 Enzyme Immobilization

[1] = Activity and stability of enzyme immobilized on Eupergit C; format: biochemical, Klebsiella oxytoca; conditions: 60° C., 4% racemic amide in 100 mM CAPS buffer (pH 10)
Description: The heat-treated cell-free extract was immobilized using Eupergit C (Röhm GmbH). To this end, Eupergit C (3.0 g) was added to 15 ml of heat-treated cell-free extract (protein concentration: 51 mg) in 1 M potassium phosphate buffer (pH 8.0). The mixture was incubated for 90 hours at room temperature with gentle stirring. The immobilized enzyme was filtered off and washed 4 times with 20 ml of 100 mM potassium phosphate buffer (pH 8.0). Support-bound enzyme (49 mg) gave 9.5 g of immobilized enzyme (fresh weight), which was stored in 100 mM potassium phosphate buffer (pH 10.0) at 4° C. To test the activity and stability of the immobilized enzyme, a small chromatography column was loaded with 5 g (25 mg of protein). A peristaltic pump (0.135 ml×min^−1) was used to circulate the substrate (100 ml 4% racemic amide in 100 mM CAPS buffer (pH 10)) between column and reservoir. The entire process was carried out in a water bath. At certain intervals, samples were taken for analysis. […] Three biotransformations (each with 4 g of racemic substrate, the first having been carried out at 60° C. and the remaining two at 40° C.) gave a total of 6 g of (S)-amide.

C[C@@](O)(C(N)=O)C(F)(F)F [(R)-2,2-HTFMPA, 3,3,3-trifluoro-2-hydroxy-2-methyl-propionamide]
Km (amidohydrolase; 60° C. in 100 mM CAPS buffer, pH 10): 32 mM

CO [methanol]
effect of methanol on the amidohydrolase (amidohydrolase): inhibitory effect | effect of methanol on the amidohydrolase (amidohydrolase; listed as Methanol): inhibit the reaction

B1: amidohydrolase: (R)-stereospecific amidohydrolase from Klebsiella oxytoca PRS1/PRS1K17, SEQ ID No. 2; tested as heat-treated cell-free extract (protein, listed as Klebsiella oxytoca)
chain: MKWLEESIMAKRGVGAGRKPVTHHLTEEMQKEFHYTIGPYSTPVLTIEPGDRIIVDTRDAFEGAINSEQDIPSQLLKMPFLNPQNGPIMVNGAEKGDVLAVYIESMLPRGVDPYGICAMIPHFGGLTGTDLTAMLNDPLPEKVRMIKLDSEKVYWSKRHTLPYKPHIGTLSVSPEIDSINSLTPDNHGGNMDVPDIGPGSITYPLVRAPGGRLFIGDAHACQGDGEICGTAVEFASITTIKVDLIKNWQLSWPRMENAENIMSIGSARPLEDATRIAYRDLIYWLVEDFGFEQWDAYMLLSQCGKVRLGNMVDPKYTVGAMLNKNLLV
specific activity [1]: 114 μg×min^−1×mg protein^−1

— patent publication US7553652B2, “Process for the preparation of (S)- or (R)-3,3,3-trifluoro-2-hydroxy-2-methylpropionic acid” (Lonza AG, priority 1996, dated 2009)
